In US20110064694A1, “ANTI-HEPATITIS C ACTIVITY OF MESO-TETRAKIS-PORPHYRIN ANALOGUES” (YALE UNIVERSITY, priority 2009, published 2011):
Where two headings read alike, the source gives them in different places.

Columns and labels:
[1] = test system: HCV genotype 1b (Con 1 isolate) subgenomic replicon; assay: microbe, parasite or virus in culture; format: cell-based, Hepatitis C virus
Experimental: (§1) Cells. HCV genotype 1b (Con 1 isolate) subgenomic replicon cell line with luciferase reporter (Huh-luc/neo-ET) was kindly provided by Ralf Bartenschlager from the University of Heidelberg (37). Huh-luc/neo-ET cells were cultured in Dulbecco's modified Eagle medium (DMEM , supplemented with 10% fetal bovine serum (FBS), 1 mM nonessential amino acids, and 250 μg/ml of G418 (Invitrogen). Genotype 2a (JFH-I isolate) subgenomic replicon cells YSGR-JFH were cultured in DMEM containing 10 To fetal calf serum, 1 mM nonessential amino acids and 400 μg/ml G418 (31). An additional genotype 1b (Conl) replicon cell line (4291BBix) was cultured in similar media but with 3 μg/ml blasticidin (22).
(§2) Determination of antiviral activities. Ff-luciferase reporter activity was used to monitor the replication of HCV replicons in Huhluc/neo-ET cells free from G418. Replicon cells were seeded at the density of 5×10^3 cells per well in 96-well plates. The following day, replicon cells were incubated in duplicates with DMSO or serially diluted tetraphenylporphyrin (TPP) analogues at 37″C. 72 hrs after co-incubation, cells were lysed with ice-cold passive lysis reagent after PBS wash, and the luciferase activity was measured with the luciferase assay kit (Promega) and Tecan FARCyte luminometer (GE Healthcare) following the manufacturers' descriptions. The relative light units (RLU) were adjusted as percentage readings of the compound-free controls and the 50% effective concentration (EC50) was determined from dose-effect curve by nonlinear regression analysis using Origin 6.1 (OriginLab Software). TPP analogues were also screened in vitro against HIV-I IIIB and HBV as previously described (26,41). Briefly 1×10^3 MT-2 cells per well were exposed in triplets to 0.1TC1D50/cell (50% of the tissue culture infectious dose) of HIV-1 IIIB and cultured in the presence of compounds. The EC50 values were estimated by MTT-based colorimetric quantitation of viral CPE after 5 days. Anti-HBV activities were evaluated in 2.2.15 cells by means of Southern DNA hybridization.

[2] = test system: HIV-1 IIIB; assay: Anti-HIV activity in MT-2 cells, MTT quantitation of viral CPE; format: cell-based; settings: MT-2 cells, 5 days; read-out: Antiviral Activity EC50 HIV-1 IIIB
Experimental: as §2

[3] = test system: MT-2 cells; assay: Cytotoxicity in uninfected MT-2 cells; format: cell-based; settings: uninfected MT-2 cells, 5 days; read-out: Cytotoxicity CC50 MT-2
Experimental: Determination of cytotoxicity and mitochondrial DNA toxicity. Exponentially growing Huh-7 cells were seeded at a density of 1×10^4 cells per well in a 24-well plate and incubated with TPP analogues for 3 days. Cells were fixed and stained with 0.5% methylene blue in 50% ethanol followed by extensive washing. After the plates were air dried, cells were solubilized in 1% sarkosyl and cell growth was determined from the extent of absorption by spectrophotometric measurements at 595 nm (Biotek Instruments). For compounds whose dark color interfered with 595-nm reading, cytotoxicity was measured by the CellTiter-Glo luminesecent cell viability assay following manufacturer's description (Promega). Cytotoxicity in MT-2 cells was determined from colorimetric quantitation of uninfected MT-2 cells after 5 days of coincubation.

[4] = test system: mitochondrial DNA content of CEM cells; assay: Mitochondrial DNA toxicity, slot blot of CEM cell lysates; format: cell-based
Experimental: Quantitation of mitochondrial DNA content was performed as previously published (18). Briefly, CEM cell lysates were spotted onto Hybond paper using the Miliford II slot blot apparatus (Schleicher & Schuell). MTDNA was detected with mtDNA-specific probe and then reprobed with Alu probe for internal control. The autoradiographic bands were quantified on scanning densitometer (Molecular Dynamics).

[5] = test system: HCV genotype 1b (Con1) replicon RNA; assay: HCV RNA quantification by qRT-PCR in Huh-luc/neo-ET cells; format: cell-based, Hepatitis C virus; settings: for EC50: qRT-PCR, estimated
Experimental: Quantification of HCV RNA and NS5A protein. Huhluc/neo-ET cells were seeded at the density of 1×10^5 cells per well in 6-well plate and treated with either DMSO control or up to 250 nM of compound 6. Cells were harvested after 24, 48, or 72 hrs of incubation and subjected to luciferase activity assay, RNA quantification and immunoblotting. Results were averaged from three independent repeats. Luciferase activity assay was done in triplets per experiment as aforementioned and RLU reading was normalized against the total protein level per sample determined from Bradford assay. Total RNA was isolated using RNeasy Mini Kit (QIAGEN) and the RNA concentrations were measured by spectrophotometry (GE Healthcare) followed by dilution into 50 ng/μL. Replicon RNA was quantitated in triplicates by amplifying the HCV 5′UTR using one-step real-time reverse transcriptase polymerase chain reactions (qRT-PCR). Each 20 μL replicate contained 100 ng of total RNA, 100 nM probe (6FAM-5′-[…]-3′-MGBNFQ, Applied Biosystems) and 200 nM forward and reverse primers (5′-[…]-3′, and 5′-[…]-3′ respectively, Yale University W.M. Keck Facility) (21), together with iScript reverse transcriptase and reaction mix for one-step RT-PCR (Bio-Rad Laboratories). Reactions were run in the iCycler iQ RealTime thermocycler detection system (Bio-Rad Laboratories) as follows: 10 min at 50° C., 5 min at 95° C., followed by 42 cycles at 95° C. for 15 sec and 60° C. for […]. Results were normalized against the β-actin mRNA levels in each sample (20).
(§3) Activity of compound 6 against genotype 2a (JFH-I) replicons. In parallel to Huh-luc/neo-ET cells, 1×10^5 YSGR-JFH cells per well were incubated with DMSO control, compound 6, or recombinant human IFNα-2a (Pestka Biomedical Laboratories) in 6-well plates. Cells were harvested after 72 hrs of co-incubation and HCV RNAs were quantitated by qRT-PCR and normalized as described above.

[6] = test system: HCV genotype 2a (JFH-1) replicon; assay: HCV RNA quantification by qRT-PCR in YSGR-JFH cells; format: cell-based, Hepatitis C virus
Experimental: as §1, §3

[7] = test system: mitochondrial potential of Huh-luc/neo-ET cells; settings: up to 1 M for 9 days, compared with mock-treated control
Experimental: We treated Huh-luc/neo-ET cells with up to 1 µM of compound 6 for 9 days, during which the media were replenished every 3 days and the cells were passaged once. Live cells were stained with the ratiometric indicator JC-1 (Invitrogen) in order to measure the mitochondrial potential using confocal microscopy.

## O=C(O)c1cc(C(=O)O)cc(-c2ccc(-c3c4nc(c(-c5ccc(-c6cc(C(=O)O)cc(C(=O)O)c6)cc5)c5ccc([nH]5)c(-c5ccc(-c6cc(C(=O)O)cc(C(=O)O)c6)cc5)c5nc(c(-c6ccc(-c7cc(C(=O)O)cc(C(=O)O)c7)cc6)c6ccc3[nH]6)C=C5)C=C4)cc2)c1 [Compound 6, Meso-teftakis-(3,5-dicarboxy-4,4′-biphenyl)porphyrin]
[1]; CC50 in naïve Huh-7 cells / EC50
  selective index in culture (CC50/EC50): over 2000
[1]; HCV replicons in vitro, read-out: anti-HCV EC50
  EC50: 24 nM
[1]; Huh-luc/neo-ET, 72 hrs, luciferase, read-out: Antiviral Activity EC50 HCV
  EC50: 24 ± 5.1 nM
[1]; Table 3, metal M in porphyrin core, read-out: EC50 anti-HCV activity, metallation of porphyrin core of compound 6
  EC50: 19 ± 5.2 nM
[1]; relative to lead compound 2
  improvement in anti-HCV EC50 over compound 2: 75 fold
[1]; unit inferred, read-out: EC50 against HCV genotype 1b Conl replicons
  EC50: 24 ± 5 nM
[2]
  EC50: 3670 ± 1220 nM
[3]
  CC50: 18000 ± 4240 nM
[4]
  effect on amount of mitochondrial DNAs: did not alter the amount of mitochondrial DNAs
[4]; CEM cells, read-out: Mitochondrial DNA Toxicity IC50 CEM
  IC50: > 50000 nM
[5]; 24 hrs, read-out: 24-hr EC50, HCV RNA level
  EC50: 67.8 nM
[5]; 48 hrs, read-out: 48-hr EC50, HCV RNA level
  EC50: 36.2 nM
[5]; 72 hr vs 24 hr
  improvement of 72-hr EC50 compared with 24-hr incubation, HCV RNA: over 2 fold
[6]; 72 hrs
  EC50 in YSGR-JFH (genotype 2a) relative to EC50 in Huh-luc/neo-ET (genotype 1b): over 57 fold
[6]; anti-HCV EC50
  less effective against genotype 2a (JFH-1) than against genotype 1b (Conl) replicons: 57 times
[6]; genotype 2a, 72 hrs, HCV RNA by qRT-PCR, read-out: antiviral EC50 against YSGR-JFH replicon cells
  EC50: 1380 ± 148 nM
[7]
  effect on mitochondrial potential: did not affect the mitochondrial potential
